Patent US20210238225A1, “PEPTIDOMIMETIC INHIBITORS OF THE PEPTIDYL-PROLYL CIS/TRANS ISOMERASE (PIN1)” (DANA-FARBER CANCER INSTITUTE, INC., priority 2018, published 2021)
Like-named read-outs stand apart in the source and are kept apart here. Non-standard residues stand in square brackets, D forms with d. Residues, ends and D or L forms follow the SMILES beside them. *: point of attachment. Phe(F5) = N[C@@H](Cc1c(F)c(F)c(F)c(F)c1F)C(=O)O; Phe(3,5-F2) = N[C@@H](Cc1cc(F)cc(F)c1)C(=O)O; Ala(4-thiazolyl) = N[C@@H](Cc1cscn1)C(=O)O; Morpholine(3S-CO) = O=C(O)[C@@H]1COCCN1; Phe(2-Br) = N[C@@H](Cc1ccccc1Br)C(=O)O; 2Nal = N[C@@H](Cc1ccc2ccccc2c1)C(=O)O; Met(O2) = CS(=O)(=O)CC[C@H](N)C(=O)O; NH(4-Me-benzyl) = Cc1ccc(CN*)cc1; pS = N[C@@H](COP(=O)(O)O)C(=O)O; Cit = NC(=O)NCCC[C@H](N)C(=O)O; Pip = O=C(O)[C@@H]1CCCCN1; βNA = c1ccc2cc(N*)ccc2c1; Fluoroacetyl = O=C(CF)*; Acryloyl = C=CC(=O)*; ClAc = O=C(CCl)*

Molecular target: Pin1 (GST-Pin1) (Homo sapiens, UniProt Q13526)
Assay: Fluorescence polarization (FP) assay, binding to Pin1
Conditions: competition with fluorescein-labeled peptide probe, 12 hours pre-incubation at 4° C., Kenakin Ki equation

Sequence of Pin1 (GST-Pin1) (Q13526 whole entry): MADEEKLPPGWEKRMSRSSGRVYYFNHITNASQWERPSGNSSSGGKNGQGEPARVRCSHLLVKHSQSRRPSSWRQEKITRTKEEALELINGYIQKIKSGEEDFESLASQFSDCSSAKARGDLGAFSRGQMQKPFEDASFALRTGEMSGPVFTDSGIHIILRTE

| SMILES | Ki (read-out: Ki, μM (FP Assay)) [µM] | Ki (Ki, μM (FP Assay)) [µM] |
| --- | --- | --- |
| CS(=O)(=O)CC[C@H](NC(=O)CCl)C(=O)N1CCCC[C@H]1C(=O)N[C@@H](Cc1ccc2ccccc2c1)C(=O)N[C@@H](CCC(N)=O)C(N)=O [Compound 2-3, (S)-2-((S)-2-((S)-1-((S)-2-(2-Chloroacetamido)-4-(methylsulfonyl)butanoyl)piperidine-2-carboxamido)-3-(naphthalen-2-yl)propanamido)pentanediamide] (ClAc-[Met(O2)][Pip][2Nal]Q-NH2) | > 10 |  |
| N=C(N)NCCC[C@H](NC(=O)[C@H](Cc1ccc2ccccc2c1)NC(=O)[C@@H]1CCCCN1C(=O)[C@H](CCC(=O)O)NC(=O)CF)C(N)=O [Compound 6b-1, (S)-5-((S)-2-(((S)-1-(((S)-1-Amino-5-guanidino-1-oxopentan-2-yl)amino)-3-(naphthalen-2-yl)-1-oxopropan-2-yl)carbamoyl)piperidin-1-yl)-4-(2-fluoroacetamido)-5-oxopentanoic acid] (Fluoroacetyl-E[Pip][2Nal]R-NH2) |  | > 10 |
| COC(=O)CC[C@H](NC(=O)CCl)C(=O)N1CCCC[C@H]1C(=O)N[C@@H](Cc1c[nH]c2ccccc12)C(=O)N[C@@H](Cc1c(F)c(F)c(F)c(F)c1F)C(=O)NCc1ccc(C)cc1 [Compound 11-25, Methyl (S)-5-((S)-2-(((S)-3-(1H-indol-3-yl)-1-(((S)-1-((4-methylbenzyl)amino)-1-oxo-3-(perfluoro-phenyl)propan-2-yl)amino)-1-oxopropan-2-yl)carbamoyl)piperidin-1-yl)-4-(2-chloroacetamido)-5-oxopentanoate] (ClAc-E(OMe)[Pip]W[Phe(F5)]-{NH(4-Me-benzyl)}) |  | > 10 |
| C=CC(=O)N[C@@H](CCC(=O)O)C(=O)N1CCCC[C@H]1C(=O)N[C@@H](Cc1ccc2ccccc2c1)C(=O)N[C@@H](CCC(N)=O)C(N)=O [Compound 2b-1, (S)-4-Acrylamido-5-((S)-2-(((S)-1-(((S)-1,5-diamino-1,5-dioxopentan-2-yl)amino)-3-(naphthalen-2-yl)-1-oxopropan-2-yl)carbamoyl)piperidin-1-yl)-5-oxopentanoic acid] (Acryloyl-E[Pip][2Nal]Q-NH2) | > 10 |  |
| CC(=O)N[C@@H](Cc1ccccc1)C(=O)N1CCCC[C@H]1C(=O)N[C@@H](Cc1c[nH]c2ccccc12)C(=O)N[C@@H](CCCNC(N)=O)C(=O)NCc1ccc(C)cc1 [Compound 11-36, (S)—N—((S)-3-(1H-Indol-3-yl)-1-(((S)-1-((4-methylbenzyl)amino)-1-oxo-5-ureidopentan-2-yl)amino)-1-oxopropan-2-yl)-1-(acetyl-L-phenylalanyl)piperidine-2-carboxamide] (Ac-F[Pip]W[Cit]-{NH(4-Me-benzyl)}) | > 10 |  |
| NC(=O)CC[C@H](NC(=O)[C@H](Cc1ccc2ccccc2c1)NC(=O)[C@@H]1COCCN1C(=O)[C@H](CCC(=O)O)NC(=O)CCl)C(N)=O [Compound 2b-5, (S)-4-(2-Chloroacetamido)-5-((S)-3-(((S)-1-(((S)-1,5-diamino-1,5-dioxopentan-2-yl)amino)-3-(naphthalen-2-yl)-1-oxopropan-2-yl)carbamoyl)morpholino)-5-oxopentanoic acid] (ClAc-E[Morpholine(3S-CO)][2Nal]Q-NH2) | > 10 |  |
| COC(=O)CC[C@H](NC(=O)CCl)C(=O)N1CCCC[C@H]1C(=O)N[C@@H](Cc1c[nH]c2ccccc12)C(=O)N[C@@H](Cc1ccccc1Br)C(=O)NCc1ccc(C)cc1 [Compound 11-27, Methyl (S)-5-((S)-2-(((S)-1-(((S)-3-(2-bromophenyl)-1-((4-methylbenzyl)amino)-1-oxopropan-2-yl)amino)-3-(1H-indol-3-yl)-1-oxopropan-2-yl)carbamoyl)piperidin-1-yl)-4-(2-chloroacetamido)-5-oxopentanoate] (ClAc-E(OMe)[Pip]W[Phe(2-Br)]-{NH(4-Me-benzyl)}) |  | > 10 |
| COC(=O)CC[C@H](NC(=O)CCl)C(=O)N1CCCC[C@H]1C(=O)N[C@@H](Cc1c[nH]c2ccccc12)C(=O)N[C@@H](Cc1ccc2ccccc2c1)C(N)=O [Compound 2-24, Methyl (S)-5-((S)-2-(((S)-1-(((S)-1-Amino-3-(naphthalen-2-yl)-1-oxopropan-2-yl)amino)-3-(1H-indol-3-yl)-1-oxopropan-2-yl)carbamoyl)piperidin-1-yl)-4-(2-chloroacetamido)-5-oxopentanoate] (ClAc-E(OMe)[Pip]W[2Nal]-NH2) | 0.525 |  |
| COC(=O)CC[C@H](NC(=O)CCl)C(=O)N1CCCC[C@H]1C(=O)N[C@@H](Cc1c[nH]c2ccccc12)C(=O)N[C@@H](Cc1cc(F)cc(F)c1)C(=O)NCc1ccc(C)cc1 [Compound 11-24, Methyl (S)-4-(2-chloroacetamido)-5-((S)-2-(((S)-1-(((S)-3-(3,5-difluorophenyl)-1-((4-methyl-benzyl)amino)-1-oxopropan-2-yl)amino)-3-(1H-indol-3-yl)-1-oxopropan-2-yl)carbamoyl)piperidin-1-yl)-5-oxopentanoate] (ClAc-E(OMe)[Pip]W[Phe(3,5-F2)]-{NH(4-Me-benzyl)}) |  | > 10 |
| NC(=O)NCCC[C@H](NC(=O)[C@H](Cc1c[nH]c2ccccc12)NC(=O)[C@@H]1CCCCN1C(=O)[C@H](COP(=O)(O)O)NC(=O)CCl)C(N)=O [Compound 2-21, (S)-3-((S)-2-(((S)-1-(((S)-1-Amino-1-oxo-5-ureidopentan-2-yl)amino)-3-(1H-indol-3-yl)-1-oxopropan-2-yl)carbamoyl)piperidin-1-yl)-2-(2-chloroacetamido)-3-oxopropyl dihydrogen phosphate] (ClAc-[pS][Pip]W[Cit]-NH2) | 0.004 |  |
| Cc1ccc(CNC(=O)[C@H](Cc2cscn2)NC(=O)[C@H](Cc2c[nH]c3ccccc23)NC(=O)[C@@H]2CCCCN2C(=O)[C@H](Cc2ccccc2)NC(=O)CCl)cc1 [Compound 11-32, (S)—N—((S)-3-(1H-Indol-3-yl)-1-(((S)-1-((4-methylbenzyl)amino)-1-oxo-3-(thiazol-4-yl)propan-2-yl)amino)-1-oxopropan-2-yl)-1-((2-chloroacetyl)-L-phenylalanyl)piperidine-2-carboxamide] (ClAc-F[Pip]W[Ala(4-thiazolyl)]-{NH(4-Me-benzyl)}) | 0.121 |  |
| NC(=O)NCCC[C@H](NC(=O)[C@H](Cc1c[nH]c2ccccc12)NC(=O)[C@@H]1CCCCN1C(=O)[C@H](CCC(=O)O)NC(=O)CCl)C(=O)Nc1ccc2ccccc2c1 [Compound 11-10, (S)-5-((S)-2-(((S)-3-(1H-Indol-3-yl)-1-(((S)-1-(naphthalen-2-ylamino)-1-oxo-5-ureidopentan-2-yl)amino)-1-oxopropan-2-yl)carbamoyl)piperidin-1-yl)-4-(2-chloroacetamido)-5-oxopentanoic acid] (ClAc-E[Pip]W[Cit]-βNA) | 0.11 |  |
| NC(=O)CC[C@H](NC(=O)[C@H](Cc1ccc2ccccc2c1)NC(=O)[C@@H]1CCCCN1C(=O)[C@@H](CC(=O)O)NC(=O)CCl)C(N)=O [Compound 2-1, (R)-3-(2-Chloroacetamido)-4-((S)-2-(((S)-1-(((S)-1,5-diamino-1,5-dioxopentan-2-yl)amino)-3-(naphthalen-2-yl)-1-oxopropan-2-yl)carbamoyl)piperidin-1-yl)-4-oxobutanoic acid] (ClAc-[dD][Pip][2Nal]Q-NH2) | > 10 |  |
